Data reported in patent US7235377B2, “Global test of the hemostatic system” (The University of Vermont and State Agriculture College, priority 2003, dated 2007).

What was measured:
[1] = INR of individuals on coumadin therapy; type: in vivo, human
Procedure: Thrombin is illustrated for the group of 13 healthy individuals (♦/⋄, column 1), with the 6-month time period for subject 10 (⋄) illustrated. […] An historical record of whole blood data for individuals on coumadin therapy (●/∘) is seen in column 3. […] Individuals with hemophilia A; or induced hemophilia B; with (Δ) and without (▴) in vitro replacement were reevaluated for their 20 minute time point and are seen in column 4. Two individuals with factor XI deficiency (▪) at low tissue factor are shown in column 5. Thrombin generation from blood treated with anti platelet IIbIIIa therapeutics (*), ReoPro and Integrellin are represented in column 6.

whole blood = assay: Tissue factor initiated whole blood assay, thrombin (TAT) at 20 minutes, historical record of treated individuals/blood; design: species or system human
[2] = one individual on coumadin therapy over a 6 month time period

SMILES: CC(=O)CC(c1ccccc1)c1c(O)c2ccccc2oc1=O (stereo not drawn) [Coumadin]
- INR ([1]; group of 7 individuals stably anticoagulated on coumadin, studied once): 2.3±0.5
- INR ([1]; one individual on coumadin therapy studied 10 times over 6 months): 2.1±0.4
- TAT level, Mean (whole blood; mean per group, repeated measures on individuals averaged, 20 min): 273.5
- mean thrombin (whole blood; [2]): 166.6 ± 121.3 nM
- variation of thrombin levels (whole blood; [2]): approximately 325 nM
- thrombin levels (range) (whole blood; one individual on coumadin therapy, stable INR, studied 10 times over 6 months, 20 min): 9.3 to 334.7 nM
